Values after ≈ are worked out from the molar mass of the structure shown.
Tested on: Mycobacterium tuberculosis
Assay: Antitubercular activity against Mycobacterium tuberculosis H37Rv after 2 weeks
Type: functional
Settings: 336 h

Question: Which MIC does the source give for COc1c2ccoc2nc2c(OC)cccc12 [GAMMA-FAGARINE] here?
Answer: 30 mg/L (≈ 131 µM)

Question: For COC(=O)/C=C/c1ccc2c(c1)C[C@@H](C(C)(C)O)O2 [METHYL DEMETHOXYWUTAIENSATE], which MIC is on record?
Answer: 50 mg/L (≈ 191 µM)

Question: CC(C)=CCOc1ccc(C(=O)O)cc1 [VALENCIC ACID] was tested. Which MIC did it give?
Answer: 45 mg/L (≈ 218 µM)

Question: CC[C@@H](CO)NCCN[C@@H](CC)CO [ETHAMBUTOL] was tested. Which MIC did it give?
Answer: 6.25 mg/L (≈ 30.6 µM)

Question: For COC(=O)c1cc2c(c(OC)c1)O[C@H](C(C)(C)O)C2, which MIC is on record?
Answer: 35 mg/L (≈ 131 µM)

Question: How did the MIC turn out when COc1cc(/C=C/C=O)cc2c1O[C@H](C(C)(C)O)C2 [WUTAIENSAL] was run?
Answer: 30 mg/L (≈ 114 µM)

Question: How did the MIC turn out when COc1cc(/C=C/C=O)cc2ccoc12 was run?
Answer: 35 mg/L (≈ 173 µM)

Question: COc1cc(CCCO)cc2ccoc12 was tested. Which MIC did it give?
Answer: 50 mg/L (≈ 242 µM)

Question: For COc1c2ccccc2nc2occc12 [DICTAMNINE], which MIC is on record?
Answer: 30 mg/L (≈ 151 µM)

Source: ChEMBL document CHEMBL1155034, “Constituents of the root wood of Zanthoxylum wutaiense with antitubercular activity” (2008)
